Assay results: ChEMBL document CHEMBL3885881, “DrugMatrix”

Organism: Rattus norvegicus
Test: DrugMatrix - Regimen: Daily Repeat
Type: toxicity, organism-based, Sprague-Dawley
Set-up: regimen Daily Repeat, gender Male, age 6-8 weeks
Conditions: in vivo, po, route oral GAVAGE, vehicle .5 % CMC; for BASOPHIL / EOSINOPHIL / ERYTHROCYTE COUNT / HEMATOCRIT / HEMOGLOBIN / LEUKOCYTE COUNT / LYMPHOCYTE / MEAN CORPUSCULAR HEMOGLOBIN / MEAN CORPUSCULAR HEMOGLOBIN CONCENTRATION / MEAN CORPUSCULAR VOLUME / MONOCYTE / NEUTROPHIL / PLATELET COUNT: tissue Blood; for ALANINE AMINOTRANSFERASE / ALBUMIN / ALKALINE PHOSPHATASE / ASPARTATE AMINOTRANSFERASE / BLOOD UREA NITROGEN / CARBON DIOXIDE / CHLORIDE / CHOLESTEROL / CREATINE PHOSPHOKINASE / CREATININE / GLUCOSE / LACTATE DEHYDROGENASE / LIPASE / PHOSPHORUS / POTASSIUM / SODIUM / TOTAL BILIRUBIN / TOTAL PROTEIN / URIC ACID: tissue Plasma
[1] = 0 mg/kg, 72 h, dose level Control, time 3 day
[2] = 0 mg/kg, 120 h, dose level Control, time 5 day
[3] = 47 mg/kg, 72 h, dose level Low, time 3 day
[4] = 47 mg/kg, 120 h, dose level Low, time 5 day
[5] = 1200 mg/kg, 72 h, dose level High, time 3 day
[6] = 1200 mg/kg, 120 h, dose level High, time 5 day

Q: Which results are given for Nc1ccn([C@H]2CC[C@@H](CO)O2)c(=O)n1 [ZALCITABINE]?
A: BASOPHIL [1]: 0.17%; EOSINOPHIL [1]: 0.83%; ERYTHROCYTE COUNT [1]: 7.2 x10E6/uL; HEMATOCRIT [1]: 43.13%; HEMOGLOBIN [1]: 14.63 G/DL; LEUKOCYTE COUNT [1]: 9.05 x10E3/uL; LYMPHOCYTE [1]: 75.17%; MEAN CORPUSCULAR HEMOGLOBIN [1]: 20.35 pg; MEAN CORPUSCULAR HEMOGLOBIN CONCENTRATION [1]: 33.95 G/DL; MEAN CORPUSCULAR VOLUME [1]: 59.93 fL; MONOCYTE [1]: 2.83%; NEUTROPHIL [1]: 21.17%; PLATELET COUNT [1]: 1093.17 x10E3/uL; ALANINE AMINOTRANSFERASE [1]: 49.17 u/L; ALBUMIN [1]: 4.33 G/DL; ALKALINE PHOSPHATASE [1]: 366.5 u/L; ASPARTATE AMINOTRANSFERASE [1]: 86.33 u/L; BLOOD UREA NITROGEN [1]: 17 mg/dL; CARBON DIOXIDE [1]: 24.17 mmol/L; CHLORIDE [1]: 102.83 MEQ/L; CHOLESTEROL [1]: 78.33 mg/dL; CREATINE PHOSPHOKINASE [1]: 320.83 u/L; CREATININE [1]: 0.3 mg/dL; GLUCOSE [1]: 140.83 mg/dL; LACTATE DEHYDROGENASE [1]: 210 u/L; LIPASE [1]: 9.33 u/L; PHOSPHORUS [1]: 9.12 mg/dL; POTASSIUM [1]: 5.65 MEQ/L; SODIUM [1]: 144.17 MEQ/L; TOTAL BILIRUBIN [1]: 0.1 mg/dL; TOTAL PROTEIN [1]: 6.3 G/DL; URIC ACID [1]: 1.03 mg/dL; BASOPHIL [2]: 0.17%; EOSINOPHIL [2]: 1%; ERYTHROCYTE COUNT [2]: 7.02 x10E6/uL; HEMATOCRIT [2]: 43.12%; HEMOGLOBIN [2]: 14.18 G/DL; LEUKOCYTE COUNT [2]: 9.63 x10E3/uL; LYMPHOCYTE [2]: 72%; MEAN CORPUSCULAR HEMOGLOBIN [2]: 20.25 pg; MEAN CORPUSCULAR HEMOGLOBIN CONCENTRATION [2]: 32.95 G/DL; MEAN CORPUSCULAR VOLUME [2]: 61.43 fL; MONOCYTE [2]: 2.67%; NEUTROPHIL [2]: 24.5%; PLATELET COUNT [2]: 1028.5 x10E3/uL; ALANINE AMINOTRANSFERASE [2]: 42.5 u/L; ALBUMIN [2]: 4.2 G/DL; ALKALINE PHOSPHATASE [2]: 300.33 u/L; ASPARTATE AMINOTRANSFERASE [2]: 87.67 u/L; BLOOD UREA NITROGEN [2]: 17 mg/dL; CARBON DIOXIDE [2]: 24.33 mmol/L; CHLORIDE [2]: 99 MEQ/L; CHOLESTEROL [2]: 70.67 mg/dL; CREATINE PHOSPHOKINASE [2]: 891.33 u/L; CREATININE [2]: 0.3 mg/dL; GLUCOSE [2]: 139.67 mg/dL; LACTATE DEHYDROGENASE [2]: 289.83 u/L; LIPASE [2]: 8.83 u/L; PHOSPHORUS [2]: 9.5 mg/dL; POTASSIUM [2]: 5.55 MEQ/L; SODIUM [2]: 139 MEQ/L; TOTAL BILIRUBIN [2]: 0.0833 mg/dL; TOTAL PROTEIN [2]: 6.1 G/DL; URIC ACID [2]: 0.98 mg/dL; BASOPHIL [3]: 0.33%; EOSINOPHIL [3]: 1.67%; ERYTHROCYTE COUNT [3]: 7.03 x10E6/uL; HEMATOCRIT [3]: 42.67%; HEMOGLOBIN [3]: 14.33 G/DL; LEUKOCYTE COUNT [3]: 10.43 x10E3/uL; LYMPHOCYTE [3]: 70.67%; MEAN CORPUSCULAR HEMOGLOBIN [3]: 20.4 pg; MEAN CORPUSCULAR HEMOGLOBIN CONCENTRATION [3]: 33.57 G/DL; MEAN CORPUSCULAR VOLUME [3]: 60.7 fL; MONOCYTE [3]: 2.33%; NEUTROPHIL [3]: 25%; PLATELET COUNT [3]: 1049.33 x10E3/uL; ALANINE AMINOTRANSFERASE [3]: 49.33 u/L; ALBUMIN [3]: 4.27 G/DL; ALKALINE PHOSPHATASE [3]: 380.5 u/L; ASPARTATE AMINOTRANSFERASE [3]: 78.67 u/L; BLOOD UREA NITROGEN [3]: 18.33 mg/dL; CARBON DIOXIDE [3]: 22.33 mmol/L; CHLORIDE [3]: 101 MEQ/L; CHOLESTEROL [3]: 74.67 mg/dL; CREATINE PHOSPHOKINASE [3]: 442.33 u/L; CREATININE [3]: 0.27 mg/dL; GLUCOSE [3]: 147 mg/dL; LACTATE DEHYDROGENASE [3]: 216.67 u/L; LIPASE [3]: 9 u/L; PHOSPHORUS [3]: 9.3 mg/dL; POTASSIUM [3]: 5.95 MEQ/L; SODIUM [3]: 143.67 MEQ/L; TOTAL BILIRUBIN [3]: 0.1 mg/dL; TOTAL PROTEIN [3]: 6.27 G/DL; URIC ACID [3]: 0.87 mg/dL; BASOPHIL [4]: 0.33%; EOSINOPHIL [4]: 1%; ERYTHROCYTE COUNT [4]: 7.41 x10E6/uL; HEMATOCRIT [4]: 44.03%; HEMOGLOBIN [4]: 14.73 G/DL; LEUKOCYTE COUNT [4]: 11.23 x10E3/uL; LYMPHOCYTE [4]: 81.67%; MEAN CORPUSCULAR HEMOGLOBIN [4]: 19.83 pg; MEAN CORPUSCULAR HEMOGLOBIN CONCENTRATION [4]: 33.4 G/DL; MEAN CORPUSCULAR VOLUME [4]: 59.43 fL; MONOCYTE [4]: 2.33%; NEUTROPHIL [4]: 15.67%; PLATELET COUNT [4]: 1184 x10E3/uL; ALANINE AMINOTRANSFERASE [4]: 46 u/L; ALBUMIN [4]: 4.43 G/DL; ALKALINE PHOSPHATASE [4]: 323 u/L; ASPARTATE AMINOTRANSFERASE [4]: 95.67 u/L; BLOOD UREA NITROGEN [4]: 15.67 mg/dL; CARBON DIOXIDE [4]: 22.33 mmol/L; CHLORIDE [4]: 98.33 MEQ/L; CHOLESTEROL [4]: 68 mg/dL; CREATINE PHOSPHOKINASE [4]: 672 u/L; CREATININE [4]: 0.3 mg/dL; GLUCOSE [4]: 129 mg/dL; LACTATE DEHYDROGENASE [4]: 673.67 u/L; LIPASE [4]: 8.67 u/L; PHOSPHORUS [4]: 9.57 mg/dL; POTASSIUM [4]: 5.77 MEQ/L; SODIUM [4]: 140.67 MEQ/L; TOTAL BILIRUBIN [4]: 0.1 mg/dL; TOTAL PROTEIN [4]: 6.4 G/DL; URIC ACID [4]: 1.23 mg/dL; BASOPHIL [5]: 0.33%; EOSINOPHIL [5]: 1%; ERYTHROCYTE COUNT [5]: 7.16 x10E6/uL; HEMATOCRIT [5]: 42.4%; HEMOGLOBIN [5]: 14.27 G/DL; LEUKOCYTE COUNT [5]: 9.77 x10E3/uL; LYMPHOCYTE [5]: 80.33%; MEAN CORPUSCULAR HEMOGLOBIN [5]: 20 pg; MEAN CORPUSCULAR HEMOGLOBIN CONCENTRATION [5]: 33.73 G/DL; MEAN CORPUSCULAR VOLUME [5]: 59.27 fL; MONOCYTE [5]: 2.33%; NEUTROPHIL [5]: 16.33%; PLATELET COUNT [5]: 1274 x10E3/uL; ALANINE AMINOTRANSFERASE [5]: 63.67 u/L; ALBUMIN [5]: 4.3 G/DL; ALKALINE PHOSPHATASE [5]: 291.67 u/L; ASPARTATE AMINOTRANSFERASE [5]: 78 u/L; BLOOD UREA NITROGEN [5]: 15.33 mg/dL; CARBON DIOXIDE [5]: 22.67 mmol/L; CHLORIDE [5]: 103.67 MEQ/L; CHOLESTEROL [5]: 79 mg/dL; CREATINE PHOSPHOKINASE [5]: 509 u/L; CREATININE [5]: 0.3 mg/dL; GLUCOSE [5]: 141.33 mg/dL; LACTATE DEHYDROGENASE [5]: 255.33 u/L; LIPASE [5]: 9.33 u/L; PHOSPHORUS [5]: 10.23 mg/dL; POTASSIUM [5]: 5.83 MEQ/L; SODIUM [5]: 146.33 MEQ/L; TOTAL BILIRUBIN [5]: 0.1 mg/dL; TOTAL PROTEIN [5]: 6.17 G/DL; URIC ACID [5]: 1.33 mg/dL; BASOPHIL [6]: 0%; EOSINOPHIL [6]: 0.67%; ERYTHROCYTE COUNT [6]: 7.45 x10E6/uL; HEMATOCRIT [6]: 45%; HEMOGLOBIN [6]: 15 G/DL; LEUKOCYTE COUNT [6]: 9.43 x10E3/uL; LYMPHOCYTE [6]: 80%; MEAN CORPUSCULAR HEMOGLOBIN [6]: 20.1 pg; MEAN CORPUSCULAR HEMOGLOBIN CONCENTRATION [6]: 33.37 G/DL; MEAN CORPUSCULAR VOLUME [6]: 60.37 fL; MONOCYTE [6]: 2.33%; NEUTROPHIL [6]: 16.33%; PLATELET COUNT [6]: 957.67 x10E3/uL; ALANINE AMINOTRANSFERASE [6]: 49.33 u/L; ALBUMIN [6]: 4.1 G/DL; ALKALINE PHOSPHATASE [6]: 291.67 u/L; ASPARTATE AMINOTRANSFERASE [6]: 101.33 u/L; BLOOD UREA NITROGEN [6]: 15.33 mg/dL; CARBON DIOXIDE [6]: 22.67 mmol/L; CHLORIDE [6]: 99.67 MEQ/L; CHOLESTEROL [6]: 63.33 mg/dL; CREATINE PHOSPHOKINASE [6]: 865 u/L; CREATININE [6]: 0.3 mg/dL; GLUCOSE [6]: 138 mg/dL; LACTATE DEHYDROGENASE [6]: 744.67 u/L; LIPASE [6]: 8.33 u/L; PHOSPHORUS [6]: 9.43 mg/dL; POTASSIUM [6]: 5.67 MEQ/L; SODIUM [6]: 141 MEQ/L; TOTAL BILIRUBIN [6]: 0.1 mg/dL; TOTAL PROTEIN [6]: 6.23 G/DL; URIC ACID [6]: 0.9 mg/dL
